From the supplement of paper PMC10307832

How the values were obtained:
Assay in all cases: relative viability (nuclei count vs DMSO), 5 days (fraction); higher = more cells survive
NCI-H661 = system: NCI-H661
Outline: (§1)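 Relative viability equals treated-well nuclei counts divided by vehicle-well nuclei counts. Counts came from 4× images of lung cancer cell lines grown in 1536-well plates for 5 days after pin-tool dosing on the day after seeding. Dosing used one drug alone or a fixed anchor-drug dose plus five library-drug doses (not always all listed) in √10 steps, and values are medians of duplicate plates.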

PC-14 = system: PC-14
Outline: as §1

HCC-366 = system: HCC-366
Outline: as §1

CAL-12T = system: CAL-12T
Outline: as §1

SW 900 = system: SW 900
Outline: as §1

NCI-H2009 = system: NCI-H2009
Outline: as §1

NCI-H1437 = system: NCI-H1437
Outline: as §1

NCI-H1666 = system: NCI-H1666
Outline: as §1

NCI-H460 = system: NCI-H460
Outline: as §1

201T = system: 201T
Outline: as §1

COR-L 105 = system: COR-L 105
Outline: as §1

NCI-H3122 = system: NCI-H3122
Outline: as §1

HARA = system: HARA
Outline: as §1

LOU-NH91 = system: LOU-NH91
Outline: as §1

LK-2 = system: LK-2
Outline: as §1

BEN = system: BEN
Outline: as §1

NCI-H441 = system: NCI-H441
Outline: as §1

NCI-H2170 = system: NCI-H2170
Outline: as §1

NCI-H1650 = system: NCI-H1650
Outline: as §1

EKVX = system: EKVX
Outline: as §1

`O=c1cc(-c2cccc3c2Sc2ccccc2S3)oc(N2CCOCC2)c1` + Nc1nc2[nH]cc(CCc3ccc(C(=O)N[C@@H](CCC(=O)O)C(=O)O)cc3)c2c(=O)[nH]1 [Pemetrexed] (partner 0.2 µM) showed a relative viability (NCI-H661; first compound 0.08 µM) of 0.9, a relative viability (NCI-H661; first compound 0.253 µM) of 0.942 and a relative viability (NCI-H661; first compound 0.8 µM) of 0.962. For the same molecule, the relative viability (NCI-H661; first compound 2.53 µM) was 0.874, the relative viability (NCI-H661; first compound 8 µM) was 0.899 and the relative viability (PC-14; first compound 0.08 µM) was 0.138. For the same molecule, the relative viability (PC-14; first compound 0.253 µM) was 0.135, the relative viability (PC-14; first compound 0.8 µM) was 0.132 and the relative viability (PC-14; first compound 2.53 µM) was 0.119. It also gave a relative viability (PC-14; first compound 8 µM) of 0.12, a relative viability (HCC-366; first compound 0.08 µM) of 0.154 and a relative viability (HCC-366; first compound 0.253 µM) of 0.193. For the same molecule, the relative viability (HCC-366; first compound 0.8 µM) was 0.167, the relative viability (HCC-366; first compound 2.53 µM) was 0.154 and the relative viability (HCC-366; first compound 8 µM) was 0.155. The relative viability (CAL-12T; first compound 0.08 µM) was 1.25, the relative viability (CAL-12T; first compound 0.253 µM) was 1.39 and the relative viability (CAL-12T; first compound 0.8 µM) was 1.18. It also gave a relative viability (CAL-12T; first compound 2.53 µM) of 1.04, a relative viability (CAL-12T; first compound 8 µM) of 1.03 and a relative viability (SW 900; first compound 0.253 µM) of 0.492. It also gave a relative viability (SW 900; first compound 0.8 µM) of 0.495, a relative viability (SW 900; first compound 2.53 µM) of 0.439 and a relative viability (SW 900; first compound 8 µM) of 0.438. The relative viability (NCI-H2009; first compound 0.08 µM) was 1.08, the relative viability (NCI-H2009; first compound 0.253 µM) was 0.96 and the relative viability (NCI-H2009; first compound 0.8 µM) was 0.983. The relative viability (NCI-H2009; first compound 2.53 µM) was 0.966, the relative viability (NCI-H2009; first compound 8 µM) was 0.957 and the relative viability (NCI-H1437; first compound 0.08 µM) was 0.339. It also gave a relative viability (NCI-H1437; first compound 0.253 µM) of 0.354, a relative viability (NCI-H1437; first compound 0.8 µM) of 0.435 and a relative viability (NCI-H1437; first compound 2.53 µM) of 0.288. It also gave a relative viability (NCI-H1437; first compound 8 µM) of 0.3, a relative viability (NCI-H1666; first compound 0.08 µM) of 0.844 and a relative viability (NCI-H1666; first compound 0.253 µM) of 0.913. For the same molecule, the relative viability (NCI-H1666; first compound 0.8 µM) was 0.762, the relative viability (NCI-H1666; first compound 2.53 µM) was 0.758 and the relative viability (NCI-H1666; first compound 8 µM) was 0.793. For the same molecule, the relative viability (NCI-H460; first compound 0.08 µM) was 0.0549, the relative viability (NCI-H460; first compound 0.253 µM) was 0.0572 and the relative viability (NCI-H460; first compound 0.8 µM) was 0.0622. It also gave a relative viability (NCI-H460; first compound 2.53 µM) of 0.0639, a relative viability (NCI-H460; first compound 8 µM) of 0.0685 and a relative viability (201T; first compound 0.08 µM) of 0.302. For the same molecule, the relative viability (201T; first compound 0.253 µM) was 0.353, the relative viability (201T; first compound 0.8 µM) was 0.37 and the relative viability (201T; first compound 2.53 µM) was 0.287. The relative viability (201T; first compound 8 µM) was 0.302, the relative viability (COR-L 105; first compound 0.08 µM) was 1.08 and the relative viability (COR-L 105; first compound 0.253 µM) was 0.835. It also gave a relative viability (COR-L 105; first compound 0.8 µM) of 1.1, a relative viability (COR-L 105; first compound 2.53 µM) of 0.918 and a relative viability (COR-L 105; first compound 8 µM) of 1.14. The relative viability (NCI-H3122; first compound 0.08 µM) was 0.205, the relative viability (NCI-H3122; first compound 0.253 µM) was 0.197 and the relative viability (NCI-H3122; first compound 0.8 µM) was 0.186. The relative viability (NCI-H3122; first compound 2.53 µM) was 0.191, the relative viability (NCI-H3122; first compound 8 µM) was 0.18 and the relative viability (HARA; first compound 0.08 µM) was 0.24. It also gave a relative viability (HARA; first compound 0.253 µM) of 0.227, a relative viability (HARA; first compound 0.8 µM) of 0.228 and a relative viability (HARA; first compound 2.53 µM) of 0.251. The relative viability (HARA; first compound 8 µM) was 0.286, the relative viability (LOU-NH91; first compound 0.08 µM) was 0.332 and the relative viability (LOU-NH91; first compound 0.253 µM) was 0.34. For the same molecule, the relative viability (LOU-NH91; first compound 0.8 µM) was 0.367, the relative viability (LOU-NH91; first compound 2.53 µM) was 0.397 and the relative viability (LOU-NH91; first compound 8 µM) was 0.31. It also gave a relative viability (LK-2; first compound 0.08 µM) of 0.312, a relative viability (LK-2; first compound 0.253 µM) of 0.297 and a relative viability (LK-2; first compound 0.8 µM) of 0.224. It also gave a relative viability (LK-2; first compound 2.53 µM) of 0.256, a relative viability (LK-2; first compound 8 µM) of 0.284 and a relative viability (BEN; first compound 0.08 µM) of 0.72. It also gave a relative viability (BEN; first compound 0.253 µM) of 0.834, a relative viability (BEN; first compound 0.8 µM) of 0.696 and a relative viability (BEN; first compound 2.53 µM) of 0.801. The relative viability (BEN; first compound 8 µM) was 1.07, the relative viability (NCI-H441; first compound 0.08 µM) was 0.258 and the relative viability (NCI-H441; first compound 0.253 µM) was 0.268. It also gave a relative viability (NCI-H441; first compound 0.8 µM) of 0.255, a relative viability (NCI-H441; first compound 2.53 µM) of 0.26 and a relative viability (NCI-H441; first compound 8 µM) of 0.241. It also gave a relative viability (NCI-H2170; first compound 0.08 µM) of 0.268, a relative viability (NCI-H2170; first compound 0.253 µM) of 0.271 and a relative viability (NCI-H2170; first compound 0.8 µM) of 0.292. For the same molecule, the relative viability (NCI-H2170; first compound 2.53 µM) was 0.256, the relative viability (NCI-H2170; first compound 8 µM) was 0.262 and the relative viability (NCI-H1650; first compound 0.08 µM) was 0.362. For the same molecule, the relative viability (NCI-H1650; first compound 0.253 µM) was 0.366, the relative viability (NCI-H1650; first compound 0.8 µM) was 0.407 and the relative viability (NCI-H1650; first compound 2.53 µM) was 0.415. The relative viability (NCI-H1650; first compound 8 µM) was 0.36, the relative viability (EKVX; first compound 0.08 µM) was 0.428 and the relative viability (EKVX; first compound 0.253 µM) was 0.376. It also gave a relative viability (EKVX; first compound 0.8 µM) of 0.381, a relative viability (EKVX; first compound 2.53 µM) of 0.482 and a relative viability (EKVX; first compound 8 µM) of 0.436.
